Experimental data: ChEMBL document CHEMBL1150724, “In vitro antiviral activity of dammar resin triterpenoids” (J Nat Prod, 1987)
Converted amounts (≈) assume the structure as drawn.

Key:
[1] = tested on: Human alphaherpesvirus 1; assay: Antiviral activity against HSV1 MacIntyre replication in african green monkey Vero cells assessed as inhibition of virus-induced cytopathic effect after 48 hrs; assay type: functional, organism-based; conditions: Human alphaherpesvirus 1, MacIntyre
[2] = tested on: Human alphaherpesvirus 2; assay: Antiviral activity against HSV2 MS replication infected in african green monkey Vero cells assessed as inhibition of virus-induced cytopathic effect after 48 hrs; assay type: functional, organism-based; conditions: Human alphaherpesvirus 2, MS

Compound | IC50 [1] [mg/L] | IC50 [2] [mg/L]
CC(C)=CCC[C@@](C)(O)[C@H]1CC[C@]2(C)[C@@H]1CC[C@@H]1[C@@]3(C)CCC(=O)C(C)(C)[C@@H]3CC[C@]12C | 2 (≈ 4.52 µM) | 5 (≈ 11.3 µM)
C=C(C)[C@@H]1CC[C@]2(C)[C@H](CC[C@@H]3[C@@H]([C@@](C)(O)CCC=C(C)C)CC[C@]32C)[C@@]1(C)CCC(=O)O [DAMMARENOLIC ACID] | 3 (≈ 6.54 µM) | 2 (≈ 4.36 µM)
C=C(C)[C@@H]1CC[C@]2(C)[C@H](CC[C@@H]3[C@@H]([C@]4(C)CC[C@H](C(C)(C)O)O4)CC[C@]32C)[C@@]1(C)CCC(=O)O [SHOREIC ACID] | 7 (≈ 14.7 µM) | 8 (≈ 16.9 µM)
C=C(C)[C@@H]1CC[C@]2(C)[C@H](CC[C@@H]3[C@@H]([C@]4(C)CC[C@@H](C(C)(C)O)O4)CC[C@]32C)[C@@]1(C)CCC(=O)O [EICHLERIANIC ACID] | 7 (≈ 14.7 µM) | 8 (≈ 16.9 µM)
CC(C)(O)[C@H]1CC[C@@]2(C)C1CC[C@]1(C)[C@@H]2CC[C@@H]2[C@@]3(C)CCC(=O)C(C)(C)[C@@H]3CC[C@]21C (stereo partly drawn) [HYDROXYHOPANONE] | 7 (≈ 15.8 µM) | 5 (≈ 11.3 µM)
C=C(CCC=C(C)C)[C@H]1CC[C@]2(C)[C@@H]1CC[C@@H]1[C@@]3(C)CC[C@H](O)C(C)(C)[C@@H]3CC[C@]12C [DAMMARADIENOL] | 2.5 (≈ 5.86 µM) | 3 (≈ 7.03 µM)
CC1(C)CC[C@@]23CC[C@]4(C)[C@@](OC2=O)([C@@H]3C1)[C@@H](O)C[C@@H]1[C@@]2(C)CCC(=O)C(C)(C)[C@@H]2CC[C@]14C | 5 (≈ 10.6 µM) | 5 (≈ 10.6 µM)
CC(C)=CCC[C@](C)(O)[C@H]1CC[C@]2(C)[C@@H]1CC[C@@H]1[C@@]3(C)CC[C@H](O)C(C)(C)[C@@H]3CC[C@]12C | 7 (≈ 15.7 µM) | 7 (≈ 15.7 µM)
C[C@H]1[C@H](C)CC[C@]2(C(=O)O)CC[C@]3(C)C(=CC[C@@H]4[C@@]5(C)CCC(=O)C(C)(C)[C@@H]5CC[C@]43C)[C@H]12 [URSONIC ACID] | 2.5 (≈ 5.5 µM) | 8 (≈ 17.6 µM)
